One may read the EC50 as the midpoint of the concentration-response curve. For orientation: IC50 means the concentration at which inhibition is half-maximal. A higher IC50 goes with weaker potency in that assay.

The source of these data is patent US5679695A, “Aryl and heteroaryl compounds having anti-retrovirus activity” (The University of Connecticut, priority 1995, dated 1997).

“And” between values parts separate entries of the source, which are not always exact repeats. Equal entries are not always repeated. Where two headings read alike, the source gives them in different places.

The test system of data set [1] is HIV. Kind of data set: Anti-HIV activity in MT-2. The data set is classed as cell-based. The text has this:
(§1) Obviously, there is a structure activity relationship with respect to the efficacy of the compounds of the present invention. Factors that affect the relationship may include steric effects, electronic effects, (electron withdrawing or electron donating ability), resonance effects, hydrophobic,hydrophilic, hydrogen bonding parameters, etc. […] Based on the data, it has been determined that there is a direct correlation between the log (EC50)^-1 and the electronic effect of a substituent (a) or more precisely the sum of the sigma (σ) values. (The greater the electron withdrawing ability of a substituent, the higher the value of σ, while a better electron donating group has a lower value of σ.) There appears to be a direct correlation between log (EC50)^-1 and the Σσ; as the Σσ increases, so does the log (EC50)^-1. The addition of substituents to the diphenyl sulfone will affect the factors discussed hereinabove, thus both the log (EC50)^-1 and the Σσ will be affected. Thus for the diphenyl sulfone derivative [drawing 25] the relation is […]

Another data set has as its system HIV-1. The data set can be described thus: XTT assay of protection from HIV-1 cytopathic effect, infected, CEM-IW. The data set is classed as cell-based, Human Immunodeficiency Virus. The protocol: (§2) Another assay for testing the efficacy of the compounds is the procedure* used in the National Cancer Institute's test for agents active against Human Immunodeficiency Virus (HIV). It is designed to detect agents acting at any stage of the virus reproductive cycle. The assay basically involves the killing of T4 lymphocytes by HIV. Small amounts of HIV are added to cells, and a complete cycle of virus reproduction is necessary to obtain the required cell killing. Agents that interact with virions, cells, or virus gene-products to interfere with viral activities will protect cells from cytolysis. The system is automated in several features to accommodate large numbers of candidate agents and is generally designed to detect anti-HIV activity. However, compounds that degenerate, or are rapidly metabolized in the culture conditions may not show activity in this screen. All tests are compared with at least one positive (e.g., AZT-treated) control done at the same time under identical conditions.
(§3) * Weislow. O. W., Kiser, R., Fine, D., Bader, J., Shoemaker, R. H., Boyd, M. R.: New soluble-formazan assay for HIV-1 cytopathic effects: application to high-flux screening of synthetic and natural products for AIDS-antiviral activity. J. Natl. Cancer Inst. 81:577-586, 1989.
(§4) 1. The Candidate agent is dissolved in dimethyl sulfoxide (unless otherwise instructed) then diluted 1:100 in cell culture medium before preparing serial half-log10 dilutions. T4 lymphocytes (CEM cell line) are added and after a brief interval HIV-1 added, resulting in a 1:200 final dilution of the compound. Uninfected cells with the compound serve as a toxicity control, and infected and uninfected cells without compound serve as basic controls.
(§5) 2. Cultures are incubated at 37° in a 5% carbon dioxide atmosphere for 6 days.
(§6) 3. The tetrazolium salt, XTT, is added to all wells, and cultures are incubated to allow formazan color development by viable cells.
(§7) 4. Individual wells are analyzed spectrophotometrically to quantitate formazan production, and in addition are viewed microscopically for detection of viable cells and confirmation of protective activity.
(§8) 5. Drug-treated virus-infected cells are compared with drug-treated noninfected cells and with other appropriate controls (untreated infected and untreated noninfected: cells, drug-containing wells without cells, etc.) on the same plate.
(§9) 6. Data are reviewed in comparison with other tests done at the same time and a determination about activity is made.
(In general: Tetrazolium assays rely on reduction of a dye to a coloured formazan, in cell work by metabolically active cells.)

For data set [2], the system named is HIV. Kind of data set: Anti-HIV assays (summary statements, structure-activity trends). The data set is classed as cell-based.
Source text: as §1

The subject of another data set is CEM-IW. The data set can be described thus: XTT toxicity control, uninfected, CEM-IW. It is filed as cell-based. The method, then: as §2, §3, §4, §5, §6, §7, §8, §9
The nature of data set [3]: XTT toxicity control, uninfected, CEM-IW. It is filed as cell-based. Particulars: human, cem-iw cells, read-out: Uninfected response. The method, then:
as §2, §3, §4, §5, §6, §7, §8, §9

The mark [4] stands for this setting: Human immunodeficiency virus 1, read-out: MT-2 EC50, M.
The mark [5] stands for this setting: Human immunodeficiency virus 1, CEM-IW, summary table, read-out: CEM-IW EC50.
[6] abbreviates: Human immunodeficiency virus 1, MT-2, summary table, read-out: MT-2 EC50.

`O=S(=O)(c1ccccc1)c1ccccc1` [Compound 3, diphenyl sulfone]: the EC50 with HIV [1] (setting [4]) was 77.5 µM.

With `O=[N+]([O-])c1ccccc1Sc1ccccc1[N+](=O)[O-]` [Compound 5], the EC50 was 5.77 µM in the data set on HIV [1] (setting [4]) and 7.87 µM in the data set with HIV-1 (setting [5]).

As for `O=[N+]([O-])c1ccccc1S(=O)(=O)c1ccccc1[N+](=O)[O-]` [Compound 6, 2,2'-dinitrodiphenyl sulfone], in the data set with HIV [2], the “anti-HIV activity (in words)” value is given as “increased potency”. In addition, the half-maximal effective concentration (EC50) was 0.747 µM in the data set with HIV [1] (setting [4]); 0.829 µM and 1.14 µM and 0.892 µM in the data set with HIV-1 (CEM-IW, infected, read-out: EC50); 0.706 µM with HIV-1 (Human immunodeficiency virus 1, CEM-IW, infected, read-out: EC50); 5.44 µM with HIV-1 (Human immunodeficiency virus 1, read-out: CEM-IW EC50, M, CEM-IW, summary table). Moreover, the Uninfected response in the data set with CEM-IW (1.45 × 10^-4 Molar, 145 µM) was 109.82% of Control and 97.75% of Control and 89.72% of Control and 104.62% of Control; in the data set on CEM-IW (1.45 × 10^-5 Molar, 14.5 µM) it was 97.21% of Control and 84.55% of Control and 104.22% of Control; in the data set on CEM-IW (1.45 × 10^-6 Molar, 1.45 µM) it was 93.92% of Control and 100.12% of Control and 105.53% of Control; in the data set on CEM-IW (1.45 × 10^-7 Molar, 0.145 µM) it was 80.72% of Control and 98.46% of Control and 109.08% of Control and 105.53% of Control; with CEM-IW (4.58 × 10^-5 Molar, 45.8 µM), 100.68% of Control and 106.72% of Control and 80.53% of Control and 105.99% of Control; in the data set with CEM-IW (4.59 × 10^-6 Molar, 4.59 µM), 96.62% of Control and 82.26% of Control and 98.81% of Control. The Uninfected response was 74.84% of Control and 97.86% of Control and 88.80% of Control and 107.87% of Control with CEM-IW (4.60 × 10^-7 Molar, 0.46 µM); 88.77% of Control and 104.88% of Control and 105.92% of Control and 111.46% of Control in the data set on CEM-IW (4.60 × 10^-8 Molar, 0.046 µM). This molecule also had an IC50 with CEM-IW (uninfected (toxicity)) above 145 µM. In addition, the viability at 14.5 µM in data set [3] (1.45 × 10^-5 Molar) was determined as 92.5%. Also, the viability at 1.45 µM in data set [3] (1.45 × 10^-6 Molar) stood at 87.1%. In addition, the viability at 4.59 µM turned out to be 90% in data set [3] (4.59 × 10^-6 Molar) and 94% with HIV-1 (Human immunodeficiency virus 1, CEM-IW, 4.59 × 10^-6 Molar, read-out: Infected response). Also, the Conclusion result in the data set with HIV-1 (CEM-IW) is given as “ACTIVE”. Besides, in the data set with HIV-1 (CEM-IW), the “TI50 (IC/EC)” value is > 2.05 × 10^+2 and > 1.75 × 10^+2 and > 1.27 × 10^+2 and > 1.62 × 10^+2. The Infected response in the data set with HIV-1 (CEM-IW, 1.45 × 10^-4 Molar, 145 µM) was 94.22% of Control and 83.35% of Control and 80.76% of Control; with HIV-1 (CEM-IW, 1.45 × 10^-5 Molar, 14.5 µM), 100.31% of Control and 95.03% of Control and 82.49% of Control and 79.91% of Control; in the data set on HIV-1 (CEM-IW, 1.45 × 10^-6 Molar, 1.45 µM) it was 86.23% of Control and 82.50% of Control and 62.75% of Control and 68.40% of Control; in the data set with HIV-1 (CEM-IW, 4.58 × 10^-5 Molar, 45.8 µM), 95.59% of Control and 83.75% of Control and 82.81% of Control; with HIV-1 (CEM-IW, 4.59 × 10^-6 Molar, 4.59 µM) it was 92.81% of Control and 84.87% of Control and 80.73% of Control; in the data set on HIV-1 (CEM-IW, 4.60 × 10^-7 Molar, 0.46 µM) it was 29.70% of Control and 24.44% of Control and 37.65% of Control. Moreover, the viability at 145 µM in the data set on HIV-1 (Human immunodeficiency virus 1, CEM-IW, 1.45 × 10^-4 Molar, read-out: Infected response) was found to be 97.4%. For the same molecule, the viability at 45.8 µM in the data set with HIV-1 (Human immunodeficiency virus 1, CEM-IW, 4.58 × 10^-5 Molar, read-out: Infected response) is 99%. Moreover, the viability at 0.46 µM in the data set on HIV-1 (Human immunodeficiency virus 1, CEM-IW, 4.60 × 10^-7 Molar, read-out: Infected response) is 42%.

`[O-][S+](c1ccccc1)c1ccccc1` [H H H H SO]: the half-maximal effective concentration (EC50) in the data set with HIV [1] (setting [4]) is 358 µM.

Take `O=[N+]([O-])c1ccccc1S(=O)(=O)c1ccc(Cl)cc1` [Compound 4, 1-(4-chlorophenylsulfonyl)-2-nitrobenzene]: the 50% effective concentration (EC50) in the data set with HIV [1] (setting [6]) was determined as 38.2 µM; in the data set with HIV-1 (setting [5]) it was 42.9 µM.

With `O=S(=O)(c1ccccc1)c1ccccn1` [Compound 7, phenyl 2-pyridyl sulfone], the “anti-HIV activity (in words)” value in the data set on HIV [2] was “shows anti-HIV activity”. Moreover, the EC50 with HIV [1] (setting [6]) stood at 75.7 µM; in the data set with HIV-1 (setting [5]), 206 µM.
